The values below come from patent EP4772186A1, “USE AND COMPOSITION OF POSTBIOTIC OF LACTOBACILLUS PARACASEI ET-22” (Inner Mongolia Yili Industrial Group Co., Ltd., priority 2023, dated 2025).

Test [1] relates to halitosis virulence factors, including cdl, fadA, mgl, and gtfb. Nature of the test: RT-PCR of virulence factors in multi-species biofilm. Particulars: compared with CK group, 2^-△△CT method. The class given is cell-based. The procedure: 100 µl of saliva was added to a 24-well plate, then 100 µl of the corresponding concentration solution was added respectively to the experimental groups, and finally 800 µl of SHI medium was added. The plate was placed in an anaerobic box and cultured anaerobically at 37°C for 10 hours. Then, the supernatant was discarded, and the multi-species biofilm adhered to the well plate was obtained. After discarding the supernatant from the incubated biofilm, the biofilm adhered to the bottom of the well plate was re-suspended with sterile water by pipetting, transferred to a 1.5 ml centrifuge tube, and stored until gene sequencing was performed.
This example evaluated the effects of lysate, NAD, 2-hydroxy-3-phenylpropionic acid, polypeptide GP(Hyp)GAG, and peptidoglycan on halitosis virulence factors, including cdl, fadA, mgl, and gtfb. The gene cdl can regulate the expression of L-cysteine […], which can catalyze the degradation of protein substrate to produce VSC, thereby causing halitosis. Fusobacterium nucleatum secretes an amyloid-like adhesin (fadA) via the fap2-like autotransporter protein to enhance its virulence. […]
After the sample RNA was reverse-transcribing into cDNA, RT-PCR reaction was performed to detect biofilm-related virulence factors. Experimental results were calculated using the 2^-△△CT method. […]

For another test, the system named is biofilm. Description: confocal laser scanning microscopy (CLSM) of biofilm thickness. The class given is cell-based, halitosis subjects (saliva). The procedure:
Lysate group: A HA disc was placed in a 96-well plate. 10 µl of saliva was added to the 96-well plate, followed by separate addition of ET-22 viable bacteria (1.0×10^9 CFU/ml), ET-22 heat-inactivated bacterial cells (obtained by inactivating viable bacteria at 1.0×10^9 CFU/ml), and lysate (obtained by inactivating and filtering viable bacteria at 1.0×10^9 CFU/ml), each at 10 µl. Then, 80 µl of SHI medium was added. The 96-well plate was placed in an anaerobic box and cultured anaerobically at 37°C for 10 hours.
NAD group: A HA disc was placed in a 96-well plate. 10 µl of saliva was added to the 96-well plate, followed by separate addition of ET-22 viable bacteria (1.0×10^9 CFU/ml), ET-22 heat-inactivated bacterial cells (obtained by heat-inactivating viable bacteria at 1.0×10^9 CFU/ml), and NAD (100 µg/ml), each at 10 µl. Then, 80 µl of SHI medium was added. The 96-well plate was placed in an anaerobic box and cultured anaerobically at 37°C for 10 hours.
2-hydroxy-3-phenylpropionic acid group: A HA disc was placed in a 96-well plate. 10 µl of saliva was added to the 96-well plate, followed by separate addition of ET-22 viable bacteria (1.0×10^9 CFU/ml), ET-22 heat-inactivated bacterial cells (obtained by heat-inactivating viable bacteria at 1.0×10^9 CFU/ml), and 2-hydroxy-3-phenylpropionic acid (100 µg/ml), each at 10 µl. Then, 80 µl of SHI medium was added. […]

For `O=C(O)C(O)Cc1ccccc1` (stereo not drawn) [2-hydroxy-3-phenylpropionic acid], in test [1], the “expression of virulence factors (cdl, fadA, mgl, gtfb)” value is “significantly regulate”. Also, the biofilm thickness entry in the test on biofilm (compared with CK group, HA disc, pure components 100 µg/ml, others from 1.0×10^9 CFU/ml, 37°C 10 hours) is given as “significantly reduce the biofilm thickness”. The “intervention effect on biofilm thickness” value with biofilm (relative to ET-22 viable bacteria and ET-22 heat-inactivated bacteria) is “superior”.
